Laboratory results taken from PubChem BioAssay AID2060609 (Molecular Pharmacology Branch, DTP, NCI, 2025).
Several values for one entry are separate records, joined by “and”; a condition that tells them apart may be missing. Equal values may be shown once.

Test system: 855422-203-R-J1-PDC complex spheroids, viability
Test: Anticancer human tumor 855422-203-R-J1-PDC patient-derived bladder carcinoma cell line growth inhibition [CLK]
Details: for viability, T/C: stronger effect = lower value
Excerpt: A high-throughput screen of multi-cell type tumor spheroids was designed to identify active combinations of […] and targeted small molecules. Complex spheroids include a stromal component modeled by human endothelial cells (HUVEC) and fibroblasts modeled by human mesenchymal stem cells (MSCs). The concentration ranges selected for each drug and investigational agent were based upon clinically achievable concentrations if the clinical Cmax of the agent was known.
Compounds. The drugs and investigational agents: cirtuvivint (SM08502; NSC835563), CC-671 (NSC850746), vemurafenib (NSC761431), tapotoclax (NSC804041), sotorasib (NSC818433), adagrasib (NSC831453), MRTX-1133 (NSC836407), BAY2416964 (NSC825713), copanlisib (NSC816437), inavolisib (NSC800729), abemaciclib (NSC768073), osimertinib (NSC779217), entinostat (NSC756642), eltanexor (KPT-8602, NSC794443), venetoclax (NSC766270), ceralasertib (NSC777638), bortezomib (NSC756655), olaparib (NSC753686), talazoparib (NSC767125), alisertib (NSC759677), peposertib (NSC802822), gemcitabine (NSC613327), 5-fluorouracil (NSC19893), SN-38 (NSC673596), oxaliplatin (NSC266046), paclitaxel (NSC125973), and doxorubicin (NSC123127), were obtained from the National Cancer Institute (NCI) Developmental Therapeutics Program Chemical Repository. The FDA-approved anticancer drug set is available from the Developmental Therapeutics Program at https://dtp.cancer.gov/organization/dscb/obtaining/available plates.htm. […] The stock solutions were prepared in dimethyl sulfoxide (DMSO, Sigma-Aldrich, St. Louis, MO, cat. D2650), except for the platinum complexes which were prepared in saline (Quality Biological, Gaithersburg, MD, cat. 114-055-101), at 800-fold the tested concentration and stored at -70 degrees C prior to their use. All drugs and investigational agents were tested over a range starting from a high concentration at or near the clinical Cmax and decreasing in half-log increments. If the clinical Cmax for an agent had not been determined, the highest concentration tested was 10 microM.
Cell Culture. All cells were maintained in an incubator at 37 degrees C and 5% CO2 with 95% humidity. The PDC lines were cultured according to standard operating procedures established by the NCI PDMR. Briefly, all PDCs were thawed and cultured in Matrigel-coated flasks prepared with a working solution of 1X Ham's F-12 nutrient mix, without supplementation (Invitrogen, Waltham, MA, cat. 11765054), 100 U/mL penicillin-streptomycin (Invitrogen, cat. 15140122), and 2.5% Matrigel (Corning Inc., Corning, NY, cat. 354248) for the first three passages. The 947758-054-R-J2-PDC line was cultured in 6B/Colon 1A media, which includes advanced DMEM/F-12 (Thermo Fisher Scientific, cat. 12634028), 10 mM HEPES (Thermo Fisher Scientific, cat. 15630080), 1X GlutaMAX supplement (Thermo Fisher Scientific, cat. 35050061), 0.1 mg/mL primocin (InvivoGen, cat. ant-pm-2), 10% defined fetal bovine serum, heat inactivated (HyClone Laboratories Inc., cat. SH30070.03HI), 1.25 mM N-Acetyl-L-cysteine (Sigma-Aldrich, cat. A9165), 10 mM nicotinamide (Sigma-Aldrich, cat. N0636), 1X B-27 supplement (Thermo Fisher Scientific, cat. 17504044), 1X N-2 supplement (Thermo Fisher Scientific, cat. 17502048), and 10 microM Y-27632 dihydrochloride (Tocris Bioscience, cat. 1254). The 876862-298-R-J1-PDC was cultured in 6E media, which includes all 6B/Colon 1A media components plus 50% L-WRN conditioned media (ATCC, cat. CRL-3276), 50 ng/mL recombinant human EGF recombinant protein (hEGF; Thermo Fisher Scientific, cat. PHG0311), 10 ng/mL recombinant human fibroblast growth factor 10 (hGFG-10; PeproTech, cat. 100-26), 1 ng/mL recombinant human fibroblast growth factor 2 (hFGF-2; PeproTech, cat. 100-18B), and 1 µM prostaglandin E2 (PGE2; Tocris, cat. 2296). The 227483-062-R1-J1-PDC line was cultured in Panc media, containing all 6E components except hFGF-2, with the addition of 500 nM SB-431542 (Selleckchem, cat. S1067) and 10 nM gastrin (Tocris, cat. 3006). […]

[1] = curve of first compound, second compound 0.0316 µM
[2] = curve of first compound, second compound 0.1 µM
[3] = curve of first compound, second compound 0.316 µM
[4] = curve of first compound, second compound 1 µM
[5] = curve of first compound, second compound 3.16 µM
[6] = curve of first compound, second compound 10 µM
[7] = second compound 0.0316 µM, first compound 0.0316 µM
[8] = second compound 0.0316 µM, first compound 0.1 µM
[9] = second compound 0.0316 µM, first compound 0.316 µM
[10] = second compound 0.0316 µM, first compound 1 µM
[11] = second compound 0.0316 µM, first compound 3.16 µM
[12] = second compound 0.0316 µM, first compound 10 µM
[13] = second compound 0.1 µM, first compound 0.0316 µM
[14] = second compound 0.1 µM, first compound 0.1 µM
[15] = second compound 0.1 µM, first compound 0.316 µM
[16] = second compound 0.1 µM, first compound 1 µM
[17] = second compound 0.1 µM, first compound 3.16 µM
[18] = second compound 0.1 µM, first compound 10 µM
[19] = second compound 0.316 µM, first compound 0.0316 µM
[20] = second compound 0.316 µM, first compound 0.1 µM
[21] = second compound 0.316 µM, first compound 0.316 µM
[22] = second compound 0.316 µM, first compound 1 µM
[23] = second compound 0.316 µM, first compound 3.16 µM
[24] = second compound 0.316 µM, first compound 10 µM
[25] = second compound 1 µM, first compound 0.0316 µM
[26] = second compound 1 µM, first compound 0.1 µM
[27] = second compound 1 µM, first compound 0.316 µM
[28] = second compound 1 µM, first compound 1 µM
[29] = second compound 1 µM, first compound 3.16 µM
[30] = second compound 1 µM, first compound 10 µM
[31] = second compound 3.16 µM, first compound 0.0316 µM
[32] = second compound 3.16 µM, first compound 0.1 µM
[33] = second compound 3.16 µM, first compound 0.316 µM
[34] = second compound 3.16 µM, first compound 1 µM
[35] = second compound 3.16 µM, first compound 3.16 µM
[36] = second compound 3.16 µM, first compound 10 µM
[37] = second compound 10 µM, first compound 0.0316 µM
[38] = second compound 10 µM, first compound 0.1 µM
[39] = second compound 10 µM, first compound 0.316 µM
[40] = second compound 10 µM, first compound 1 µM
[41] = second compound 10 µM, first compound 3.16 µM
[42] = second compound 10 µM, first compound 10 µM
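Further: spheroids exposed to drugs for seven days before readout.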
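Wherever viability, T/C is given: 100% = DMSO vehicle control wells.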

COc1ccc([C@@H](O)c2cc(-c3ncnc4cc(N5CCOCC5)ccc34)c(F)cc2Cl)nn1 + CNC(=O)c1ccc(Nc2nc(OC3CCCC3)c3c(-c4ccc5nc(C)oc5c4)c[nH]c3n2)c(OC)c1
IC50 [1]: 5.74 µM | IC50 [2]: 1.46 µM | IC50 [3]: < 0.0316 µM | IC50 [4]: < 0.0316 µM | IC50 [5]: < 0.0316 µM | IC50 [6]: < 0.0316 µM | viability, T/C [7]: 78.5% | viability, T/C [8]: 118% | viability, T/C [9]: 95.2% | viability, T/C [10]: 82.7% | viability, T/C [11]: 71.8% | viability, T/C [12]: 31.1% | viability, T/C [13]: 55.8% | viability, T/C [14]: 55.2% | viability, T/C [15]: 44.4% | viability, T/C [16]: 47.9% | viability, T/C [17]: 48.9% | viability, T/C [18]: 22.9% | viability, T/C [19]: 24% | viability, T/C [20]: 23.9% | viability, T/C [21]: 16.8% | viability, T/C [22]: 19.2% | viability, T/C [23]: 16.3% | viability, T/C [24]: 12.3% | viability, T/C [25]: 23.3% | viability, T/C [26]: 24.6% | viability, T/C [27]: 18.3% | viability, T/C [28]: 17.4% | viability, T/C [29]: 19.5% | viability, T/C [30]: 12.1% | viability, T/C [31]: 17.7% | viability, T/C [32]: 17.7% | viability, T/C [33]: 16.3% | viability, T/C [34]: 22.1% | viability, T/C [35]: 16.6% | viability, T/C [36]: 12.4% | viability, T/C [37]: 22.1% | viability, T/C [38]: 20.9% | viability, T/C [39]: 25.1% | viability, T/C [40]: 18.4% | viability, T/C [41]: 14.4% | viability, T/C [42]: 8.91%

O=C(c1cc(Cc2n[nH]c(=O)c3ccccc23)ccc1F)N1CCN(C(=O)C2CC2)CC1
viability, T/C (compound 0.0316 µM): 118% and 121% | viability, T/C (compound 0.1 µM): 91.3% and 115% | viability, T/C (compound 0.316 µM): 110% and 104% | viability, T/C (compound 1 µM): 112% and 120% | viability, T/C (compound 3.16 µM): 119% and 130% | viability, T/C (compound 10 µM): 101% and 138% | IC50 (curve of compound): > 10 µM

COc1cccc2c1C(=O)c1c(O)c3c(c(O)c1C2=O)CC(O)(C(=O)CO)CC3OC1CC(N)C(O)C(C)O1 (stereo unspecified) + CN1CCN(c2cc(C(=O)Nc3cc4cc(-c5cnn(C)c5)ccc4cn3)ccn2)CC1
IC50 [1]: < 0.0316 µM | IC50 [2]: < 0.0316 µM | IC50 [3]: < 0.0316 µM | IC50 [4]: < 0.0316 µM | IC50 [5]: < 0.0316 µM | IC50 [6]: < 0.0316 µM | viability, T/C [7]: 8.97% | viability, T/C [8]: 3.16% | viability, T/C [9]: 0.95% | viability, T/C [10]: 0.46% | viability, T/C [11]: 0.59% | viability, T/C [12]: 1.01% | viability, T/C [13]: 8.75% | viability, T/C [14]: 1.14% | viability, T/C [15]: 0.71% | viability, T/C [16]: 1.31% | viability, T/C [17]: 0.35% | viability, T/C [18]: 0.34% | viability, T/C [19]: 1.19% | viability, T/C [20]: 1.5% | viability, T/C [21]: 0.36% | viability, T/C [22]: 0.28% | viability, T/C [23]: 0.35% | viability, T/C [24]: 0.27% | viability, T/C [25]: 0.21% | viability, T/C [26]: 0.29% | viability, T/C [27]: 0.23% | viability, T/C [28]: 0.31% | viability, T/C [29]: 0.39% | viability, T/C [30]: 0.81% | viability, T/C [31]: 0.29% | viability, T/C [32]: 0.57% | viability, T/C [33]: 0.22% | viability, T/C [34]: 0.22% | viability, T/C [35]: 0.42% | viability, T/C [36]: 0.22% | viability, T/C [37]: 0.09% | viability, T/C [38]: 0.17% | viability, T/C [39]: 1.68% | viability, T/C [40]: 0.13% | viability, T/C [41]: 0.76% | viability, T/C [42]: 1.02%
